Reference: patent US8642592B2, “Oxo-heterocyclically substituted alkyl carboxylic acids and use thereof” (Bayer Intellectual Property GmbH, priority 2009, dated 2014)

Experiments:
sGC = biological target: T1, sGC (Rattus norvegicus, UniProt P20595); assay: sGC-activating activity in the CHO reporter cell in vitro; assay type: cell-based
T1 construct: expressed in transfected cells; host or cells: CHO reporter cell line
T1 sequence (P20595 1-619): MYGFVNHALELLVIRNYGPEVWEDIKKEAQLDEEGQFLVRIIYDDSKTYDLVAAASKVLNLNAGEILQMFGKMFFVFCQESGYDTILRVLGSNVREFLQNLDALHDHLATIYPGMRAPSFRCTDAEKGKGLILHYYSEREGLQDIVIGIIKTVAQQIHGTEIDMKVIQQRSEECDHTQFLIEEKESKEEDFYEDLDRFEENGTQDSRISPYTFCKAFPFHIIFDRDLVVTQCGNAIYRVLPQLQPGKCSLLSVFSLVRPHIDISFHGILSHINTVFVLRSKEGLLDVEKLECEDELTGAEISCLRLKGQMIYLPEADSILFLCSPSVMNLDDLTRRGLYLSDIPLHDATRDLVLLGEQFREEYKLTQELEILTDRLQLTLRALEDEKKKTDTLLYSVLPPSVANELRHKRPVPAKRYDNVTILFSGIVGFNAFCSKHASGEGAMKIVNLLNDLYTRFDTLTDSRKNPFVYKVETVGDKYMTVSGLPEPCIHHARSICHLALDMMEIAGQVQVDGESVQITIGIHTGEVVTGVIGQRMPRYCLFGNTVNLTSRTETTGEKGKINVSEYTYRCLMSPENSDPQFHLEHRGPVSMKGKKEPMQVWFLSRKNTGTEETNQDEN
T1 sequence (P19686 1-690 partner): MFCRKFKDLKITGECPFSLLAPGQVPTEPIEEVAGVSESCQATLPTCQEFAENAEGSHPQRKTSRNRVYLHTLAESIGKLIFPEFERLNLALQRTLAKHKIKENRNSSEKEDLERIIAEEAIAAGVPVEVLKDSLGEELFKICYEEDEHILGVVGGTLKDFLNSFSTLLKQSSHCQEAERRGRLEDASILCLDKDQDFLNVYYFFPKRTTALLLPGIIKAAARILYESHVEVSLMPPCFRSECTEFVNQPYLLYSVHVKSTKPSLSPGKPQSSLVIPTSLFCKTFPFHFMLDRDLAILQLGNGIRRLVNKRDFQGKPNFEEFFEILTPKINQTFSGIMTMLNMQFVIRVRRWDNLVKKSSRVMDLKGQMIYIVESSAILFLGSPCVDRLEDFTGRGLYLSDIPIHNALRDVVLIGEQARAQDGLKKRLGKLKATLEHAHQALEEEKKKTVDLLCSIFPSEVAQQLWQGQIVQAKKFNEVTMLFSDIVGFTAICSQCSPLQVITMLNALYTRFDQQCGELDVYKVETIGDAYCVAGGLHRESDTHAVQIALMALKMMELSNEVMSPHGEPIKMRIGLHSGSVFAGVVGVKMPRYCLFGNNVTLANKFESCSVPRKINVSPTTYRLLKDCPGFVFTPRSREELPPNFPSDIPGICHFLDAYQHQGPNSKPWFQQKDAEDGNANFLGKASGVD
Protocol: The cellular action of the compounds according to the invention is determined at a recombinant guanylate cyclase reporter cell line, as described in F. Wunder et al., Anal. Biochem. 339, 104-112 (2005).

saphenous artery = assay: Vasorelaxant effect in vitro (phenylephrine-contracted artery rings); parameters: species or system Rabbits; settings: Oryctolagus cuniculus; concentration reducing phenylephrine-induced contraction of rabbit saphenous artery rings by 50%
Protocol: Rabbits are anesthetized and sacrificed by intravenous injection of thiopental sodium (about 50 mg/kg) and exsanguinated. The saphenous artery is removed and divided into rings 3 mm wide. The rings are mounted singly on in each case a pair of triangular hooks open at the end and made of 0.3 mm-thick special wire (Remanium®). Each ring is placed under an initial tension in 5 ml organ baths with Krebs-Henseleit solution which is at 37° C., is gassed with carbogen and has the following composition: NaCl 119 mM; KCl 4.8 mM; CaCl2×2 H2O 1 mM; MgSO4×7 H2O 1.4 mM; KH2PO4 1.2 mM; NaHCO3 25 mM; glucose 10 mM; bovine serum albumin 0.001%. The force of contraction is detected with Statham UC2 cells, amplified and digitized via A/D converters (DAS-1802 HC, Keithley Instruments, Munich) and recorded in parallel on chart recorders. Contractions are induced by addition of phenylephrine.
After several (generally 4) control cycles, the substance to be investigated is added in each further run in increasing dosage, and the level of the contraction achieved under the influence of the test substance is compared with the level of the contraction reached in the last preceding run. The concentration necessary to reduce the contraction reached in the preceding control by 50% is calculated from this (IC50). The standard application volume is 5 μl. The proportion of DMSO in the bath solution corresponds to 0.1%.

[1] = biological target: T2, soluble guanylate cyclase (sGC) (Rattus norvegicus, UniProt P20595); assay: Stimulation of sGC enzyme activity (PPi/luciferase detection); assay type: biochemical; settings: sGC enzyme in vitro
T2 construct: made in house; host or cells: baculovirus/Sf9 insect cells
T2 sequence (P20595 1-619): T1 sequence (P20595 1-619)
T2 sequence (P19686 1-690 partner): T1 sequence (P19686 1-690 partner)
Protocol: Soluble guanylate cyclase (sGC) converts on stimulation GTP into cGMP and pyrophosphate (PPi). PPi is detected with the aid of the assay described below. The signal produced in the assay increases as the reaction progresses and serves as a measure of the sGC enzyme activity under the given stimulation.
To carry out the assay, 29 μl of enzyme solution [0-10 nM soluble guanylate cyclase (prepared according to Honicka et al., J. Mol. Med. 77, 14-23 (1999)) in 50 mM TEA, 2 mM MgCl2, 0.1% BSA (fraction V), 0.005% Brij®, pH 7.5] are initially introduced into a microplate, and 1 μl of the substance to be tested (as a serially diluted solution in DMSO) is added. The mixture is incubated at room temperature for 10 min. Then 20 μl of detection mix [1.2 nM Firefly Luciferase (Photinus pyralis luciferase, Promega), 29 μM dehydroluciferin (prepared according to Bitler & McElroy, Arch. Biochem. Biophys. 72, 358 (1957)), 122 μM luciferin (Promega), 153 μM ATP (Sigma) and 0.4 mM DTT (Sigma) in 50 mM TEA, 2 mM MgCl2, 0.1% BSA (fraction V), 0.005% Brij®, pH 7.5] are added. The enzyme reaction is started by adding 20 μl of substrate solution [1.25 mM guanosine 5′-triphosphate (Sigma) in 50 mM TEA, 2 mM MgCl2, 0.1% BSA (fraction V), 0.005% Brij®, pH 7.5] and measured continuously in a luminometer. The extent of the stimulation by the substance to be tested can be determined relative to the signal of the unstimulated reaction.
The activation of heme-free guanylate cyclase is examined by addition of 25 μM of 1H-1,2,4-oxadiazolo[4,3-a]quinoxalin-1-one (ODQ) to the enzyme solution and subsequent incubation for 30 minutes and compared to the stimulation of the native enzyme.

O=C(NCCCCC1(C(=O)O)CC1)C(c1ccc(CN2N=C(c3ccccc3)OCC2=O)cc1)C1CCCC1 (single isomer, unassigned; (+)) [Example 1, (+)-1-(4-{[2-cyclopentyl-2-{4-[(5-oxo-2-phenyl-5,6-dihydro-4H-1,3,4-oxadiazin-4-yl)methyl]phenyl}-acetyl]amino}butyl)cyclopropanecarboxylic acid]
MEC (minimum effective concentration), sGC-activating activity in the CHO reporter cell (sGC): 10 nM | IC50 (saphenous artery): 284 nM | MEC (minimum effective concentration), activating action at the sGC enzyme [1]: 51 nM
